We go through eight compounds from US6436966B1, “Adenosine A3 receptor antagonists” (Takeda Chemical Ind., Ltd., priority 1997, dated 2002).

In general, melting point refers to the temperature of the solid-liquid transition.

Counter-ions that a name gives are not always drawn.

One data set addresses T1, human adenosine A3 receptor (Homo sapiens, UniProt P0DMS8).
T1 construct: expressed in transfected cells; membrane fraction used
T1 sequence (P0DMS8 1-318): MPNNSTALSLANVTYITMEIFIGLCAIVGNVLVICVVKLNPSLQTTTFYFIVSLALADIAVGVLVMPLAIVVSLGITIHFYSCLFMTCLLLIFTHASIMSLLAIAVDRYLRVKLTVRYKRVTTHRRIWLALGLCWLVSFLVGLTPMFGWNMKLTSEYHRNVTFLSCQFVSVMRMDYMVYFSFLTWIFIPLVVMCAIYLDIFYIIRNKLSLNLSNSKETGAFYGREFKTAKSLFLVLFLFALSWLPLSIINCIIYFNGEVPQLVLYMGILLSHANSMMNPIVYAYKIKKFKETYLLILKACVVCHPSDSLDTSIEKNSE
Nature of the data set: Binding assay with adenosine A3 receptor: [3H]-NECA binding to membranes of A3AR/CHO cells. The note with it: 10 nM [3H]-NECA, 100 μg/ml A3AR/CHO cell membranes, 1 hour at room temperature; read-out: IC50 (concentration that inhibits 50% specific binding of [3H]-NECA to the membrane). As for the experimental part:
(1) Cloning of Human Adenosine A3 Receptor
Cloning of the human adenosine A3 receptor gene was carried out by the polymerase chain reaction (PCR) from human brain cDNA. Using 1 ng of brain cDNA (Quick-Clone cDNA, TOYOBO, Osaka) as template, PCR was performed in DNA Thermal Cycler 480 (Perkin Elmer, Foster, Calif.) (reaction conditions: 35 cycles of 1 min at 95° C., 1 min at 66° C., and 2 min at 75° C.) by mixing primers (50 pmol each), 5′-[…]-3′ [Sequence No. 1] and 5′-[…]-3′ [Sequence No. 2], which were designed referring to nucleotide sequence of adenosine A3 receptor gene reported by Salvatore et. al., (Proc. Natl. Acad. Sci. U.S.A., 90:10365-10369, 1993) and TaKaRa LA PCR Kit Ver.2 (TaKaRa Shuzo Co. Ltd., Kyoto) in a Thermal cycler 480 (Parkin Elmer). The PCR product was electrophoresed and 1.0 kb DNA fragment was recovered. The DNA fragment encoding adenosine A3 receptor was cloned using Original TA Cloning Kit (FUNAKOSHI, Tokyo).
(3) Transfection of Adenosine A3 Receptor Expression Plasmid into CHO (dhfr^−) and the Expression
CHO (dhfr^−) cells were grown on Ham's F-12 medium (Nihon Selyaku, Tokyo) supplement with 10% fetal bovine serum (Life Tech Oriental; Life Technologies, Inc., Rockville, Md., USA) in a 750 ml Tissue culture flask (Becton Dickinson, Mt. View, Calif.). The growing cells were treated with 0.5 g/l trypsin-0.2 g/l EDTA (Life Technologies, Inc., Rockville, Md., USA) to harvest, washed with PBS (Life Technologies, Inc., Rockville, Md., USA), centrifugated at 1000 rpm for 5 min, and suspended in PBS. […] The cells were incubated in assay buffer I (HBSS (Wako chemicals, Osaka) containing 0.1% BSA, 0.25 mM PMSF, 1 μg/ml pepstatin, and 20 μg/ml leupeptin) to which was added 50 pM ^125I-AB-MECA (Amersham) as ligand, for 1 hour, and washed with assay buffer I. The radioactivity associated with the:.cell was measured in a γ-counter to select A3AR/CHO cells which specifically bind to the ligand. […]
For the compound `COc1ccc(-c2nc(NC(C)=O)sc2-c2cccnc2)cc1` [Reference Example Compound 10, N-[4-(4-Methoxyphenyl)-5-(3-pyridyl)-1,3-thiazol-2-yl]acetamide], the IC50 was found to be 0.27 nM.

Turning to `COc1ccc(-c2nc(NC(=O)C(C)C)sc2-c2cccnc2)cc1` [13-92], the IC50 was 0.7 nM.

With `COc1ccc(-c2nc(NC(C)=O)sc2-c2ccncc2)cc1` [13-89], the IC50 is 0.55 nM.

Tested on in another data set: not given
Assay: not given
Conditions: not given
Compound `COc1ccc(-c2nc(NC(C)=O)sc2-c2ccncc2)cc1` (as salt: HCl) [13-89] had a melting point of 275 to 278 °C.

The compound `CC(=O)Nc1nc(-c2ccncc2)c(-c2ccc(C(C)(C)C)cc2)s1` [Example Compound 5-1, N-[5-[4-(1,1-dimethylethyl)phenyl]-4-(4-pyridyl)-1,3-thiazol-2-yl]acetamide] gave a melting point of 245 to 246 °C.

The compound `CC(C)(C)c1ccc(-c2sc(N)nc2-c2ccncc2)cc1` [Example Compound 4-1, [5-[4-(1,1-dimethylethyl)phenyl]-4-(4-pyridyl)-1,3-thiazol-2-yl]amine] came in with a melting point of 275 to 277 °C.

Compound `Cc1cc(C)cc(-c2sc(N)nc2-c2ccncc2)c1` [Example Compound 4-2, [5-(3,5-dimethylphenyl)-4-(4-pyridyl)-1,3-thiazol-2-yl]amine] displayed a melting point of 262 to 263 °C.

Turning to `COc1ccc(-c2nc(NC(=O)C(C)C)sc2-c2cccnc2)cc1` [13-92], the melting point is 213 to 216 °C.

On to `CC(=O)Nc1nc(-c2ccncc2)c(-c2cc(C)cc(C)c2)s1` [Example Compound 5-2, N-[5-(3,5-dimethylphenyl)-4-(4-pyridyl)-1,3-thiazol-2-yl]acetamide], for which the melting point was in the range of 304 to 308 °C.
